Reference: US8604024B2, “Compounds for the reduction of beta-amyloid production” (Bristol-Myers Squibb Company, priority 2011, dated 2013)

These compounds were tested on Aβ1-42 production in H4 cells stably transfected with APP751 containing the Swedish mutation (assay: Cellular assay for inhibition of Aβ1-42 production (H4 APP751 SWE clone 8.20)). Conditions: 19 h, H4 APP751 SWE clone 8.20 cells, 19 h incubation; read-out: Aβ42 cellular IC50.
Format: cell-based
Procedure, shortened: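 Secreted peptide was quantified with a two-antibody homogeneous format combining Wallac-labelled 565, which recognises the Aβ42 end, and APC-labelled 26D6 at 0.8 and 75 ng/well respectively. Antibodies were diluted in 40 mM Tris-HCl, pH 7.4, 0.2% BSA and left overnight at 4 °C after a 19 h compound incubation.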

First: C[C@@]12N=C(N)SC[C@@H]1CCCc1ccc(NC(=O)c3ccc(C#N)cn3)cc12 [Example 44a, N-((4aR,11bR)-2-Amino-11b-methyl-4,4a,5,6,7,11b-hexahydrobenzo[6,7]cyclohepta[1,2-d][1,3]thiazin-10-yl)-5-cyanopicolinamide]
Second: C[C@]12N=C(N)SC[C@H]1CCCc1ccc(NC(=O)c3ccc(C#N)cn3)cc12 [Example 44b, N-((4aS,11bS)-2-Amino-11b-methyl-4,4a,5,6,7,11b-hexahydrobenzo[6,7]cyclohepta[1,2-d][1,3]thiazin-10-yl)-5-cyanopicolinamide]
The IC50 of the first is 320-fold higher: 6800 nM for the first, 21 nM for the second.

Going from C[C@]12N=C(N)SC[C@H]1CCCc1ccc(NC(=O)c3ncc(Cl)cc3Cl)cc12 [Example 45a, N-((4aS,11bS)-2-Amino-11b-methyl-4,4a,5,6,7,11b-hexahydrobenzo[6,7]cyclohepta[1,2-d][1,3]thiazin-10-yl)-3,5-dichloropicolinamide] to C[C@@]12N=C(N)SC[C@@H]1CCCc1ccc(NC(=O)c3ncc(Cl)cc3Cl)cc12 [Example 45b, N-((4aR,11bR)-2-Amino-11b-methyl-4,4a,5,6,7,11b-hexahydrobenzo[6,7]cyclohepta[1,2-d][1,3]thiazin-10-yl)-3,5-dichloropicolinamide], the IC50 rises from 7.2 nM to 920 nM (130-fold).

First: C[C@]12N=C(N)SC[C@H]1CCCc1ccc(NC(=O)c3ccc(OC(F)F)cn3)cc12 [Example 46a, N-((4aS,11bS)-2-Amino-11b-methyl-4,4a,5,6,7,11b-hexahydrobenzo[6,7]cyclohepta[1,2-d][1,3]thiazin-10-yl)-5-(difluoromethoxy)picolinamide]
Second: C[C@@]12N=C(N)SC[C@@H]1CCCc1ccc(NC(=O)c3ccc(OC(F)F)cn3)cc12 [Example 46b, N-((4aR,11bR)-2-Amino-11b-methyl-4,4a,5,6,7,11b-hexahydrobenzo[6,7]cyclohepta[1,2-d][1,3]thiazin-10-yl)-5-(difluoromethoxy)picolinamide]
The IC50 of the first is 130-fold lower: 27 nM for the first, 3500 nM for the second.
